Measured values as given in patent US10336792B2, “Antimicrobial peptide dendrimers” (priority 2014, dated 2019).
≈ marks a conversion by molar mass, not a printed value. Like-named read-outs stand apart in the source and are kept apart here. Positions of bridges follow the written chain, without caps; N, C: chain ends. Residues, ends and D or L forms follow the SMILES beside them. Groups on a side chain read outwards from the residue. Chains are numbered I, II in the order given. *: point of attachment. LeuLys(Leu) = CC(C)C[C@H](N)C(=O)NCCCC[C@H](NC(=O)[C@@H](N)CC(C)C)C(=O)*; X2 = NCCCC[C@H](N)C(=O)NCCCC[C@H](NC(=O)[C@@H](N)CCCCN)C(=O)*; X1 = CCCCCCCCCCCCCCCCCCCCCCCC(=O)*; Octanoyl = CCCCCCCC(=O)*

Experiments:
Type in all cases: cell-based
[1] = tested on: Escherichia coli (strain DH5α)
Procedure: (§1) Antimicrobial activity was assayed against Bacillus subtilis (strain BR151), Escherichia coli (strain DH5α) and Pseudomonas aeruginosa (strain PA01). Microdilution broth method was used to determine the minimal inhibitory concentration (MIC). A colony of bacteria was grown in LB-medium overnight at 37° C. The concentration was quantified by measuring absorbance at 600 nm and diluted to OD600=0.1 (1×10^8 CFU/mL). The samples were prepared as stock solutions of 1 mg mL^−1 in H2O and diluted serially by ⅔ in nutrient LB in a 96-well microtiterplate (Cornstar, polypropylene, untreated). The sample solutions (50 μL) were mixed with the diluted bacterial suspension with an OD600 nm of 0.001 (50 μL). […] The plates were incubated at 37° C. until satisfactory growth (18-24 h). For each test, two columns of the plate were kept for sterility control (SC, broth only) and growth control (GC, broth with bacterial inoculums, no antibiotics). 10 μL of a solution of MTT (0.1% in H2O) was added to each well. The minimal inhibitory concentration (MIC) was defined as the lowest concentration of the antimicrobial substance (peptide dendrimer) that inhibited visible growth of the tested bacteria (yellow) with the unaided eye. For microbiological study the linear peptide LysTyrLysLysAlaLeuLysLysLeuAlaLysLeuLeu (SEQ ID No. 1) was used as reference.
(§2) The AMPD library was tested for their antimicrobial activity against B. subtilis BR151, a Gram-positive bacterium and E. coli DH5α, another Gram-negative bacterium, to cover a broader spectrum of different bacteria. […] Therefore no explicit SAR can be established, but clearly the hydrophobic amino acids Ala and Tyr seem to have a significant influence in reducing activity.

[2] = tested on: Bacillus subtilis (strain BR151)
Procedure: as §1, §2

[3] = tested on: Pseudomonas aeruginosa (strain PA01); test: microbe, parasite or virus in culture; conditions: strain
Outline: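 Broth microdilution MIC against P. aeruginosa PAO1 in LB: peptides serially diluted by ⅔, bacteria added at OD600 0.001 and incubated 18–24 h at 37 °C. MTT added; MIC is the lowest concentration preventing visible growth.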

CCCCCCCC(=O)NCCCC[C@H](NC(=O)[C@H](CC(C)C)NC(=O)[C@H](CCCCN)NC(=O)[C@H](CCCCNC(=O)[C@H](CC(C)C)NC(=O)[C@H](CCCCN)NC(=O)[C@H](CCCCNC(=O)[C@H](CC(C)C)NC(=O)[C@H](CCCCN)NC(=O)[C@H](CCCCNC(=O)[C@H](CC(C)C)NC(=O)[C@@H](N)CCCCN)NC(=O)[C@H](CC(C)C)NC(=O)[C@@H](N)CCCCN)NC(=O)[C@H](CC(C)C)NC(=O)[C@H](CCCCN)NC(=O)[C@H](CCCCNC(=O)[C@H](CC(C)C)NC(=O)[C@@H](N)CCCCN)NC(=O)[C@H](CC(C)C)NC(=O)[C@@H](N)CCCCN)NC(=O)[C@H](CC(C)C)NC(=O)[C@H](CCCCN)NC(=O)[C@H](CCCCNC(=O)[C@H](CC(C)C)NC(=O)[C@H](CCCCN)NC(=O)[C@H](CCCCNC(=O)[C@H](CC(C)C)NC(=O)[C@@H](N)CCCCN)NC(=O)[C@H](CC(C)C)NC(=O)[C@@H](N)CCCCN)NC(=O)[C@H](CC(C)C)NC(=O)[C@H](CCCCN)NC(=O)[C@H](CCCCNC(=O)[C@H](CC(C)C)NC(=O)[C@@H](N)CCCCN)NC(=O)[C@H](CC(C)C)NC(=O)[C@@H](N)CCCCN)C(N)=O [MSt-265, (KL)8(KKL)4(KKL)2(KKLKC8)] (I: H-KLK([Leu-Lys])KLKKLKKLK(Octanoyl)-NH2 / II: H-KLK([Leu-Lys])KLKKL / III: H-KLK([Leu-Lys])KL / IV: H-KLK([Leu-Lys])KL; amide I:6-IV:C, I:9-II:C, II:6-III:C)
MIC E. coli DH5α ([1]; DH5α): 1 µg/mL (≈ 0.209 µM)
MIC B. subtilis BR151 ([2]; strain BR151): 4 µg/mL (≈ 0.835 µM)
MIC P. aeruginosa PAO1 [3]: 1 µg/mL (≈ 0.209 µM)

CC(C)C[C@H](NC(=O)[C@H](CCCCNC(=O)[C@@H](N)CC(C)C)NC(=O)[C@@H](N)CC(C)C)C(=O)NCCCC[C@H](NC(=O)[C@H](CC(C)C)NC(=O)[C@H](CCCCNC(=O)[C@@H](N)CC(C)C)NC(=O)[C@@H](N)CC(C)C)C(=O)N[C@@H](CCCCN)C(=O)NCCCC[C@H](NC(=O)[C@H](CCCCN)NC(=O)[C@H](CCCCNC(=O)[C@H](CC(C)C)NC(=O)[C@H](CCCCNC(=O)[C@@H](N)CC(C)C)NC(=O)[C@@H](N)CC(C)C)NC(=O)[C@H](CC(C)C)NC(=O)[C@H](CCCCNC(=O)[C@@H](N)CC(C)C)NC(=O)[C@@H](N)CC(C)C)C(=O)N[C@@H](CCCCN)C(N)=O [MSt-149, (L)8(KL)4(KK)2(KK)NH2] (I: H-LK(Leu)LK([Leu-LeuLys(Leu)])KKK-NH2 / II: H-LK(Leu)LK([Leu-LeuLys(Leu)])K; amide I:6-II:C; N-terminus assumed)
MIC E. coli DH5α ([1]; DH5α): >90 µg/mL
MIC B. subtilis BR151 ([2]; strain BR151): 8 µg/mL (≈ 3.01 µM)

CC(C)C[C@H](NC(=O)[C@H](CCCCN)NC(=O)[C@H](CCCCNC(=O)[C@H](CC(C)C)NC(=O)[C@H](CCCCN)NC(=O)[C@H](CCCCNC(=O)[C@H](CC(C)C)NC(=O)[C@H](CCCCN)NC(=O)CSC[C@H](NC(=O)[C@H](CC(C)C)NC(=O)[C@H](CCCCN)NC(=O)[C@H](CCCCNC(=O)[C@H](CC(C)C)NC(=O)[C@@H](N)CCCCN)NC(=O)[C@H](CC(C)C)NC(=O)[C@@H](N)CCCCN)C(N)=O)NC(=O)[C@H](CC(C)C)NC(=O)[C@H](CCCCN)NC(=O)CSC[C@H](NC(=O)[C@H](CC(C)C)NC(=O)[C@H](CCCCN)NC(=O)[C@H](CCCCNC(=O)[C@H](CC(C)C)NC(=O)[C@@H](N)CCCCN)NC(=O)[C@H](CC(C)C)NC(=O)[C@@H](N)CCCCN)C(N)=O)NC(=O)[C@H](CC(C)C)NC(=O)[C@H](CCCCN)NC(=O)[C@H](CCCCNC(=O)[C@H](CC(C)C)NC(=O)[C@H](CCCCN)NC(=O)CSC[C@H](NC(=O)[C@H](CC(C)C)NC(=O)[C@H](CCCCN)NC(=O)[C@H](CCCCNC(=O)[C@H](CC(C)C)NC(=O)[C@@H](N)CCCCN)NC(=O)[C@H](CC(C)C)NC(=O)[C@@H](N)CCCCN)C(N)=O)NC(=O)[C@H](CC(C)C)NC(=O)[C@H](CCCCN)NC(=O)CSC[C@H](NC(=O)[C@H](CC(C)C)NC(=O)[C@H](CCCCN)NC(=O)[C@H](CCCCNC(=O)[C@H](CC(C)C)NC(=O)[C@@H](N)CCCCN)NC(=O)[C@H](CC(C)C)NC(=O)[C@@H](N)CCCCN)C(N)=O)C(N)=O [CCS-20, (KL)8(KKLCxKL)4(KKL)2KKL]
MIC E. coli DH5α ([1]; DH5α): 4 µg/mL (≈ 0.651 µM)
MIC B. subtilis BR151 ([2]; strain BR151): 10 µg/mL (≈ 1.63 µM)
MIC P. aeruginosa PAO1 [3]: 3 µg/mL (≈ 0.489 µM)

CC(C)C[C@H](NC(=O)[C@H](CC(C)C)NC(=O)[C@H](CCCCNC(=O)[C@H](CC(C)C)NC(=O)[C@H](CC(C)C)NC(=O)[C@H](CCCCNC(=O)[C@H](CCCCN)NC(=O)[C@H](CCCCN)NC(=O)[C@H](CCCCNC(=O)[C@H](CCCCN)NC(=O)[C@@H](N)CCCCN)NC(=O)[C@H](CCCCN)NC(=O)[C@@H](N)CCCCN)NC(=O)[C@H](CCCCN)NC(=O)[C@H](CCCCN)NC(=O)[C@H](CCCCNC(=O)[C@H](CCCCN)NC(=O)[C@@H](N)CCCCN)NC(=O)[C@H](CCCCN)NC(=O)[C@@H](N)CCCCN)NC(=O)[C@H](CC(C)C)NC(=O)[C@H](CC(C)C)NC(=O)[C@H](CCCCNC(=O)[C@H](CCCCN)NC(=O)[C@H](CCCCN)NC(=O)[C@H](CCCCNC(=O)[C@H](CCCCN)NC(=O)[C@@H](N)CCCCN)NC(=O)[C@H](CCCCN)NC(=O)[C@@H](N)CCCCN)NC(=O)[C@H](CCCCN)NC(=O)[C@H](CCCCN)NC(=O)[C@H](CCCCNC(=O)[C@H](CCCCN)NC(=O)[C@@H](N)CCCCN)NC(=O)[C@H](CCCCN)NC(=O)[C@@H](N)CCCCN)C(N)=O [MSt-140, (KK)8(KKK)4(KLL)2(KLL)] (I: H-KKK([Lys-Lys])KKKLLKLL-NH2 / II: H-KKK([Lys-Lys])KKKLL / III: H-KKK([Lys-Lys])KK / IV: H-KKK([Lys-Lys])KK; amide I:6-IV:C, I:9-II:C, II:6-III:C)
MIC E. coli DH5α ([1]; DH5α): >95 µg/mL
MIC B. subtilis BR151 ([2]; strain BR151): 6 µg/mL (≈ 1.28 µM)

CC(C)C[C@H](NC(=O)[C@H](CCCCNC(=O)[C@H](CC(C)C)NC(=O)[C@H](CCCCNC(=O)[C@H](CCCCN)NC(=O)[C@H](CCCCNC(=O)[C@@H](N)CCCCN)NC(=O)[C@@H](N)CCCCN)NC(=O)[C@H](CCCCN)NC(=O)[C@H](CCCCNC(=O)[C@@H](N)CCCCN)NC(=O)[C@@H](N)CCCCN)NC(=O)[C@H](CC(C)C)NC(=O)[C@H](CCCCNC(=O)[C@H](CCCCN)NC(=O)[C@H](CCCCNC(=O)[C@@H](N)CCCCN)NC(=O)[C@@H](N)CCCCN)NC(=O)[C@H](CCCCN)NC(=O)[C@H](CCCCNC(=O)[C@@H](N)CCCCN)NC(=O)[C@@H](N)CCCCN)C(N)=O [MSt-148, (K)8(KK)4(KL)2(KL)NH2] (I: H-KK(Lys)KK([Lys-X2])LKL-NH2 / II: H-KK(Lys)KK([Lys-X2])L; amide I:6-II:C; N-terminus assumed)
MIC E. coli DH5α ([1]; DH5α): >90 µg/mL
MIC B. subtilis BR151 ([2]; strain BR151): 12 µg/mL (≈ 4.3 µM)

(KL)32(KKL)16(KKLCxKL)8(KKL)4(KKL)2KKL [CCS-15]
MIC E. coli DH5α ([1]; LB medium): 8 µg/mL
MIC B. subtilis BR151 ([2]; LB medium): 26 µg/mL

CC(C)C[C@H](NC(=O)[C@H](CCCCN)NC(=O)[C@H](CC(C)C)NC(=O)[C@H](CCCCN)NC(=O)[C@H](CC(C)C)NC(=O)[C@H](CCCCN)NC(=O)[C@H](CC(C)C)NC(=O)[C@H](CCCCN)NC(=O)[C@H](CC(C)C)NC(=O)[C@H](CCCCN)NC(=O)[C@H](CC(C)C)NC(=O)[C@H](CCCCN)NC(=O)[C@H](CC(C)C)NC(=O)[C@@H](N)CCCCN)C(N)=O [MSt-117, KLKLKLKLKLKLKL, reference compound] (H-KLKLKLKLKLKLKL-NH2)
MIC E. coli DH5α ([1]; DH5α): 13 µg/mL (≈ 7.62 µM)
MIC B. subtilis BR151 ([2]; strain BR151): 14 µg/mL (≈ 8.2 µM)

CCCCCCCCCCCCCCCCCCCCCCCC(=O)NCCCC[C@H](NC(=O)[C@H](CC(C)C)NC(=O)[C@H](CCCCN)NC(=O)[C@H](CCCCNC(=O)[C@H](CC(C)C)NC(=O)[C@H](CCCCN)NC(=O)[C@H](CCCCNC(=O)[C@H](CC(C)C)NC(=O)[C@@H](N)CCCCN)NC(=O)[C@H](CC(C)C)NC(=O)[C@@H](N)CCCCN)NC(=O)[C@H](CC(C)C)NC(=O)[C@H](CCCCN)NC(=O)[C@H](CCCCNC(=O)[C@H](CC(C)C)NC(=O)[C@@H](N)CCCCN)NC(=O)[C@H](CC(C)C)NC(=O)[C@@H](N)CCCCN)C(N)=O [MSt-287, (KL)4(KKL)2(KKLKC24)] (I: H-KLK([Leu-Lys])KLKKLK(X1)-NH2 / II: H-KLK([Leu-Lys])KL; amide I:6-II:C)
MIC E. coli DH5α ([1]; DH5α): 13 µg/mL (≈ 5.06 µM)
MIC B. subtilis BR151 ([2]; strain BR151): 26 µg/mL (≈ 10.1 µM)
